The values that follow come from patent EP0498899A1, “Use of N-(mercaptoacyl)-amino acids as dopaminergic und gonadoptropic medicaments” (Weth, Gosbert Dr. med., Dr. rer. nat., priority 1990, dated 1992).

For experiment [1], the system named is Dopamin. Nature of the experiment: Determination of dopamine in blood plasma of patients after administration (method of G. Weth). Format: in vivo, Patienten. Conditions: for Dopamin MW: 25 mg Captopril, mean of 12 patients, value at time 0: 110. The text has this: (§1) Die Dopaminbestimmung wurde nach G. Weth, "Das Verhalten der Neurotransmitter....", Dissertation, Würzburg, 1987, S. 123-138, durchgeführt. Die Bestimmung von Prolaktin wurde radioimmunologisch nach den Methoden von P. Hwang, H. Guyda, H. Friesen, Proc. Nat. Sci. (USA) 1971, 68/8, S.1902-06 durchgeführt.
(§2) Für die Untersuchungen wurden 2x12 Patienten (Alter 75±10 Jahre), die unter Durchblutungsstörungen, sowohl peripheren als auch zentralen, litten, herangezogen. […]
Die Bestimmung der Dopamin- und Prolaktinwerte wurde wie folgt vorgenommen. In angegebenen Zeitabschnitten von 15, 30, 60 und 120 Minuten wurden dem Patienten je 5 ml Blut entnommen und in speziell präparierte Vakuum-Container, die Glutathion und EDTA enthielten, gegeben. Das Blut wurde sofort auf 2 °C abgekühlt und bei 2 °C zentrifugiert. Das überstehende Blutplasma wurde bis zur Dopamin- und Prolaktinbestimmung bei minus 80 °C tiefgefroren.
(§3) In den Tabellen sind die Ergebnisse der vorstehend angeführten pharmakologischen Untersuchungen zusammengestellt. Die Dimensionsangaben betragen für Dopamin pg/ml bzw. ng/l und für Prolaktin ng/ml.

The subject of experiment [2] is Prolaktin. Nature of the experiment: Radioimmunological determination of prolactin in blood plasma of patients after administration. Format: in vivo, Patienten. Conditions: for Prolaktin MW: 25 mg Captopril, mean of 12 patients; for Prolaktinsenkung (Effekt): Fig. 2, result in words.
Text: as §1, §2
Die Bestimmung der Dopamin- und Prolaktinwerte wurde wie folgt vorgenommen. […] Das Blut wurde sofort auf 2 °C abgekühlt und bei 2 °C zentrifugiert. Das überstehende Blutplasma wurde bis zur Dopamin- und Prolaktinbestimmung bei minus 80 °C tiefgefroren.
as §3

With `C[C@H](CS)C(=O)N1CCC[C@H]1C(=O)O` [Captopril], the “Höhepunkt des Anstiegs von Dopamin (time)” value in experiment [1] (25 mg Captopril oral per patient (mean weight 60 kg), Fig. 1) is given as approximately 60 min. The “Dopamin MW” value in experiment [1] (15 min after dosing) was 163 pg/mL; in experiment [1] (30 min after dosing), 210 pg/mL; in experiment [1] (60 min after dosing), 291 pg/mL; in experiment [1] (90 min after dosing), 250 pg/mL; in experiment [1] (120 min after dosing), 211 pg/mL. In experiment [1] (12,5 mg Captopril, Fig. 3), the “Maximum der Dopaminfreisetzung (time)” value amounted to 60 min. For the same compound, the “Anstieg von Dopamin” value in experiment [1] (15 min after 25 mg Captopril oral per patient (mean weight 60 kg), Fig. 1, result in words) was “signifikanten Anstieg”; in experiment [1] (30 min after 25 mg Captopril, result in words), “hochsignifikanten Anstieg”. The “Anstieg (Dopaminfreisetzung)” value in experiment [1] (30 min after 12,5 mg Captopril, Fig. 3, result in words) is on record as “signifikant”. Moreover, the “Prolaktin MW” value in experiment [2] (15 min after dosing, value at time 0: 14,3) is listed as 13,6 ng/ml; in experiment [2] (30 min after dosing, value at time 0: 14,8), 12,3 ng/ml; in experiment [2] (60 min after dosing, value at time 0: 14,8) it was 9,0 ng/ml; in experiment [2] (90 min after dosing, value at time 0: 14,8), 8,4 ng/ml; in experiment [2] (120 min after dosing, value at time 0: 14,8) it was 7,9 ng/ml. For the same compound, the “Prolaktinsenkung (Effekt)” value in experiment [2] (15 min after 25 mg Captopril oral per patient (mean weight 60 kg)) is recorded as “signifikanter”; in experiment [2] (60 min after 25 mg Captopril oral per patient (mean weight 60 kg)), “hochsignifikanter”.
